What was measured:
[1] = LogP by HPLC on reversed phase columns (EEC directive 79/831 Annex V.A8); format: physicochemical; details: reversed phase HPLC columns; method [a]
Outline: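 Reversed-phase HPLC, calibrated with straight-chain alkan-2-ones (C3–C16) of known LogP; values by linear interpolation of retention times between successive alkanones. Multiple values from one method are joined by "+"; lambda-max taken from 200–400 nm UV spectra at chromatographic peaks.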

Uromyces appendiculatus = test: In vivo preventive test on Uromyces appendiculatus (bean rust); details: 240 h, sprayed 72 hours before inoculation, evaluated 10 days after inoculation, read-out: efficacy; for pest or weed control at 500 ppm: 500 ppm of active ingredient; for pest or weed control at 31 ppm: 31 ppm of active ingredient; for pest or weed control at 125 ppm: 125 ppm of active ingredient
Outline: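 Young bean plants sprayed with compound in acetone/DMSO/Tween diluted in water, then inoculated 72 h later with spore suspension. Incubated 24 h at 20° C., 100% RH, then 9 days at 20° C., 70-80% RH. Efficacy scored 10 days post-inoculation, 0% = untreated-control level, 100% = no disease.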

Peronospora parasitica = test: In vivo preventive test on Peronospora parasitica (Crucifer downy mildew) on cabbage; details: Hyaloperonospora parasitica, 120 h, sprayed 72 hours before inoculation, evaluated 5 days after inoculation, read-out: efficacy; for pest or weed control at 31 ppm: 31 ppm of active ingredient; for pest or weed control at 125 ppm: 125 ppm of active ingredient; for pest or weed control at 500 ppm: 500 ppm of active ingredient
Outline: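 Young cabbage plants were sprayed with compound in aqueous acetone/DMSO/Tween, then inoculated 72 h later with P. parasitica spores and held 5 days at 20 °C, 100% RH. Efficacy scored 5 days post-inoculation: 0% equals solvent-treated controls, 100% means no disease.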

Alternaria alternata = Alternaria alternata in vitro cell test; format: cell-based; details: 120 h, 5 days incubation, read-out: efficacy (inhibition of fungal growth; no direct activity); for inhibition at 5 ppm: 5 ppm of active ingredient; for inhibition at 20 ppm: 20 ppm of active ingredient
Outline: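 A. alternata spores in glucose/peptone/yeast-extract liquid medium were exposed to DMSO-solubilized compound (final DMSO ≤1%). After 5 days incubation, mycelium growth read spectrometrically; inhibition derived from absorbance relative to fungicide-free control wells.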

[2] = test system: salicylate responsive promoter sequence of the PR1 (pathogenesis-related protein I) gene (AT2G14610); test: Induction of defense gene expression in Arabidopsis thaliana (PR1 promoter-GFP reporter plants); format: in vivo; details: 72 h, 3rd day after spraying, mock treated leaves set as 1.00, read-out: relative fluorescence value
Outline: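 Transgenic A. thaliana carrying GFP under the salicylate-responsive PR1 promoter, grown five days, then sprayed with compounds. Whole-plant fluorescence imaged and quantified on day 3 post-spray, expressed relative to mock-treated leaf background set at 1.00.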

[3] = test system: Colletotrichum lindemuthianum; test: Colletotrichum lindemuthianum in vitro cell test; format: cell-based; details: 144 h, 6 days incubation, read-out: efficacy (inhibition of fungal growth; no direct activity); for inhibition at 5 ppm: 5 ppm of active ingredient
Outline: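 C. lindemuthianum spore suspension grown in liquid glucose/peptone/yeast-extract medium with compound (final DMSO ≤1%). After 6 days, mycelial growth measured by absorbance; inhibition calculated versus fungicide-free control wells.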

[4] = test system: Pseudomonas syringae pv. tomato; test: In vivo preventive test on Pseudomonas syringae pv. tomato (bacterial speck on tomato); details: sprayed 72 hours before inoculation, evaluated 5 or 6 days after inoculation, read-out: efficacy; for pest or weed control at 500 ppm: 500 ppm of active ingredient; for pest or weed control at 125 ppm: 125 ppm of active ingredient
Description: The tested active ingredients were prepared by homogenization in a mixture of acetone/Dimethyl sulfoxide/Tween®, and then diluted with water to obtain the desired active material concentration.
The young plants of tomato were treated by spraying the active ingredient prepared as described above. Control plants were treated only with an aqueous solution of acetone/Dimethyl sulfoxide/Tween®.
After 72 hours, the plants were contaminated by spraying the leaves with an aqueous bacteria suspension of Pseudomonas syringae pv. tomato. The contaminated tomato plants were incubated for 4 days in saturated atmosphere at 22° C. day/20° C. night−70% HR and then for 1 or 2 days at 22° C. day/20° C. night at 70-80% relative humidity.
The test was evaluated 5 or 6 days after the inoculation. 0% means an efficacy which corresponds to that of the control plants while an efficacy of 100% means that no disease was observed.

[5] = test system: Xanthomonas campestris pv. campestris; test: Xanthomonas campestris pv. campestris in vitro cell test; format: cell-based; details: 24 h of incubation, read-out: efficacy (inhibition of bacteria growth; no direct activity); for inhibition at 5 ppm: 5 ppm of active ingredient; for inhibition at 20 ppm: 20 ppm of active ingredient
Outline: (§1)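 Bacteria from liquid pre-culture diluted to set OD in LB broth and exposed to compounds dissolved in DMSO (final ≤1%). After 24 h, growth read by absorbance; inhibition derived relative to compound-free control wells.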

[6] = test system: Xanthomonas campestris pv. campestris; test: In vivo preventive test on Xanthomonas campestris pv. campestris (black rot on cabbage); details: Xanthomonas campestris, 31 ppm of active ingredient, sprayed 72 hours before inoculation, evaluated 8 or 10 days after inoculation, read-out: efficacy
Outline: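 Young cabbage plants sprayed preventively with compound formulated in acetone/DMSO/Tween and diluted in water, then inoculated 72 h later with a bacterial spray. Kept at 27° C, 95% relative humidity; disease scored after 8 or 10 days as % efficacy versus solvent-treated controls (0% = control, 100% = no disease).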

[7] = test system: Pseudomonas syringae pv. tomato; test: Pseudomonas syringae pv. tomato in vitro cell test; format: cell-based; details: 20 ppm of active ingredient, 24 h of incubation, read-out: efficacy (inhibition of bacteria growth; no direct activity)
Outline: as §1

[8] = test system: Colletotrichum lindemuthianum; test: In vivo preventive test on Colletotrichum lindemuthianum (Anthracnose on bean); details: Colletotrichum lindemuthianum, 144 h, sprayed 72 hours before inoculation, evaluated 6 days after inoculation, read-out: efficacy; for pest or weed control at 500 ppm: 500 ppm of active ingredient; for pest or weed control at 125 ppm: 125 ppm of active ingredient
Outline: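 Young bean plants were sprayed with compound in acetone/DMSO/Tween diluted in water, then inoculated 72 h later with C. lindemuthianum spores. Incubation was 24 h at 20 °C/100% RH, then 5 days at 20 °C/90% RH. Efficacy scored 6 days post-inoculation: 0% equals solvent-treated control, 100% means no disease.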

Row | SMILES | chromatographic logP [1] | pest or weed control at 500 ppm (Uromyces appendiculatus) | pest or weed control at 31 ppm (Peronospora parasitica) | pest or weed control at 125 ppm (Peronospora parasitica) | pest or weed control at 500 ppm (Peronospora parasitica) | inhibition at 5 ppm (Alternaria alternata) | fold induction at 300 ppm [2] | inhibition at 5 ppm [3] | pest or weed control at 500 ppm [4] | inhibition at 5 ppm [5] | inhibition at 20 ppm [5] | inhibition at 20 ppm [7] | pest or weed control at 31 ppm (Uromyces appendiculatus) | pest or weed control at 125 ppm (Uromyces appendiculatus) | pest or weed control at 500 ppm [8] | inhibition at 20 ppm (Alternaria alternata) | pest or weed control at 125 ppm [4] | pest or weed control at 125 ppm [8] | fold induction at 75 ppm [2] | other results
1 | COC(=O)C(CC(F)F)NC(=O)c1sc(Br)c(Br)c1C (stereo not drawn) [I.108] | 3.33 | 90 to 100% | 70 to 79% | 70 to 79% | 90 to 100% | ≤ 30% | > 2 |  | 70 to 79% | ≤ 30% | ≤ 30% | ≤ 30% |  | 90 to 100% | 90 to 100% | ≤ 30% |  | 80 to 89% | > 2 | 
2 | COC(=O)C(C)(C)NC(=O)c1sc(Cl)c(Cl)c1C [I.176] | 3.16 |  | 70 to 79% | 90 to 100% |  | ≤ 30% | > 2 | ≤ 30% |  | ≤ 30% | ≤ 30% | ≤ 30% | 90 to 100% | 90 to 100% |  | ≤ 30% | 70 to 79% |  | > 2 | 

Second part, led by results:

Row | chromatographic logP [1] | SMILES | pest or weed control at 500 ppm (Uromyces appendiculatus) | pest or weed control at 31 ppm (Peronospora parasitica) | pest or weed control at 125 ppm (Peronospora parasitica) | pest or weed control at 500 ppm (Peronospora parasitica) | inhibition at 5 ppm (Alternaria alternata) | fold induction at 300 ppm [2] | inhibition at 5 ppm [3] | pest or weed control at 500 ppm [4] | inhibition at 5 ppm [5] | inhibition at 20 ppm [5] | inhibition at 20 ppm [7] | pest or weed control at 31 ppm (Uromyces appendiculatus) | pest or weed control at 125 ppm (Uromyces appendiculatus) | pest or weed control at 500 ppm [8] | inhibition at 20 ppm (Alternaria alternata) | pest or weed control at 125 ppm [4] | pest or weed control at 125 ppm [8] | fold induction at 75 ppm [2] | other results
3 | 1.68 | COC(=O)[C@H](CCCNC(=N)N)NC(=O)c1sc(Cl)c(Cl)c1C [I.079] | 80 to 89% | 80 to 89% | 90 to 100% | 90 to 100% | ≤ 30% | > 2 | ≤ 30% | 70 to 79% | ≤ 30% | ≤ 30% | ≤ 30% |  |  |  |  |  |  |  | inhibition at 20 ppm ([3]; 20 ppm of active ingredient): ≤ 30%; pest or weed control at 31 ppm [6]: 70 to 79%
4 | 3.76 | CCOC(=O)C(NC(=O)c1sc(Cl)c(Cl)c1C)C1CC1 (stereo not drawn) [I.083] | 90 to 100% | 90 to 100% | 90 to 100% | 90 to 100% | ≤ 30% | > 2 | ≤ 30% |  | ≤ 30% | ≤ 30% | ≤ 30% | 90 to 100% | 90 to 100% | 90 to 100% | ≤ 30% | 70 to 79% |  |  | 
5 | 3.81 | COC(=O)C(NC(=O)c1sc(Cl)c(Cl)c1C)c1cccs1 (stereo not drawn) [I.165] |  | 90 to 100% | 90 to 100% |  | ≤ 30% | > 2 | ≤ 30% |  | ≤ 30% | ≤ 30% | ≤ 30% | 90 to 100% | 90 to 100% |  | ≤ 30% | 80 to 89% | 80 to 89% |  | pest or weed control at 31 ppm ([8]; 31 ppm of active ingredient): 80 to 89%
